This note sets out measurements from patent EP0312291A2, “Di-or tripeptide renin inhibitors containing lactam conformational restriction in ACHPA” (Merck & Co., Inc., priority 1987, dated 1989).

Usually IC50 stands for the concentration needed to halve the response being measured. The low end stands for greater potency, the high end for weaker potency.

The assay has as its target T1, human plasma renin (Homo sapiens, UniProt P00797).
T1 construct: from tissue; host or cells: human plasma
T1 sequence (P00797 67-406): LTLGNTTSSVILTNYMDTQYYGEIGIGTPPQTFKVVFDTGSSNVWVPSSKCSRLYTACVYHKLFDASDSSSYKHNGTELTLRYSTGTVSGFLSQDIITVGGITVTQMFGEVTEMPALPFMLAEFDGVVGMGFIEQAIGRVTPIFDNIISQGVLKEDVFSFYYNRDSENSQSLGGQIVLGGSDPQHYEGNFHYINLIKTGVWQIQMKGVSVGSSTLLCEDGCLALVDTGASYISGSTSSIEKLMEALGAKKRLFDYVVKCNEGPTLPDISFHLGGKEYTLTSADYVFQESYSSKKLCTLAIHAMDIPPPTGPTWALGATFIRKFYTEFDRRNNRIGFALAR
Put plainly: Inhibition of human plasma renin, in vitro method of Boger et al., J. Med. Chem. (1985) 28, 1779. In kind it is biochemical. As to the method: Inhibition of human plasma renin was assayed using the in vitro method described by Boger, et. al., J. Med. Chem. (1985) 28, 1779.
`CN1CCC[C@@H]([C@H](O)[C@H](CC2CCCCC2)NC(=O)[C@H](Cc2c[nH]cn2)NC(=O)[C@H](Cc2ccccc2)NC(=O)OC(C)(C)C)C1=O` [Example 3A, Boc-Phe-His-(ACHP)-1-Methyl-2-Piperidinone] displayed an IC50 of 47 nM. That is a double-digit nanomolar value.

With `CN1CCCC[C@@H]([C@H](O)[C@H](CC2CCCCC2)NC(=O)[C@H](Cc2c[nH]cn2)NC(=O)[C@H](Cc2ccccc2)NC(=O)OC(C)(C)C)C1=O` [Example 3C, Boc-Phe-His-(ACHP)-1-Methylcaprolactam], the IC50 came to 203 nM.

As to “Boc-Phe-His-(ACHP)-4-Methyl-3-Morpholinone [Example 3B]”, inhibition was half-maximal at 31 nM (IC50).
